SMILES strings stand for the structures. Where two headings read alike, the source gives them in different places.

Results on 10 compounds are retold here after US5637318A, “Dermatological agent for assisting the transport of oxygen in the skin” (Lancaster Group AG, priority 1992, dated 1997).

The conditions of data set [1]: 37° C.; cited from earlier work.
Data set [2] in a line: Critical solubility temperature (CST) in n-hexane. In kind it is physicochemical. To be noted: represented by CST in n-hexane.
Excerpt: The choice of fluorocarbons or mixtures thereof according to their lipid solubility (represented by their critical solubility temperature CST in n-hexane) permits, as a further important criterion, the regulation of the residence time in the tissue.
Data set [3] relates to skin tissue. Description: Penetration and residence of labelled encapsulated fluorocarbons in skin tissue, animal experiments.
Excerpt: (§1) It was possible to determine the dependence of the penetration rate and the depth of penetration of the particle size of the aggregates experimentally by separate investigations in animal experiments using labelled encapsulated fluorocarbons. […] The choice of fluorocarbons or mixtures thereof according to their lipid solubility (represented by their critical solubility temperature CST in n-hexane) permits, as a further important criterion, the regulation of the residence time in the tissue.
Data set [4] concerns skin tissue. The note with it: in vivo.
Excerpt: as §1

With `FC1(F)OC(F)(F)C(F)(F)N(C(F)(F)C2(F)C(F)(F)C(F)(F)C(F)(F)C(F)(F)C2(F)F)C1(F)F` [F-cyclohexylmethyl-morpholine], the “Vapour Pressure” value in data set [1] was 4 mm Hg. As for `FC(F)(F)C(F)(F)C(F)(F)C(F)(F)C(F)(F)C(F)(F)OC(F)(F)C(F)(F)C(F)(F)C(F)(F)C(F)(F)C(F)(F)F` [F-dihexyl ether], the “Vapour Pressure” value in data set [1] is 2 mm Hg. Turning to `FC(F)(F)C(F)(F)C(F)(F)C(F)(F)C(F)(F)C(F)(F)F` [F-hexane], the “Vapour Pressure” value in data set [1] is listed as 414 mm Hg. With `FC(F)(F)C1(F)C(F)(F)C(F)(F)C(F)(F)C(F)(F)C1(F)F` [F-methylcyclohexane], the “Vapour Pressure” value in data set [1] was 180 mm Hg. In the case of `FC(F)(F)C(F)(F)C(F)(F)C(F)(F)N(C(F)(F)C(F)(F)C(F)(F)C(F)(F)F)C(F)(F)C(F)(F)C(F)(F)C(F)(F)F` [F-tributylamine], the lipid solubility entry in data set [2] is “poor lipid solubility”. In data set [1], the “Vapour Pressure” value is on record as 1 mm Hg. The “residence time in the tissue / release from the tissue” value with skin tissue [3] was “relatively large residence time”. Take `FC(F)(F)C(F)(F)C(F)(F)N(C(F)(F)C(F)(F)C(F)(F)F)C(F)(F)C(F)(F)C(F)(F)F` [F-tripropylamine]: in data set [1], the “Vapour Pressure” value is on record as 18.5 mm Hg. As for `FC(F)(F)C(F)(F)C(F)(F)C(F)(F)C1(F)OC(F)(F)C(F)(F)C1(F)F` (centres unmarked) [Perfluorobutyl-tetrahydrofuran], the “Vapour Pressure” value in data set [1] is given as 51 mm Hg. For the same compound, in the data set on skin tissue [3], the “residence time in the tissue / release from the tissue” value was “released correspondingly more rapidly from the tissue”. In the case of `FC1(F)C(F)(F)C(F)(F)C2(F)C(F)(F)C(F)(F)C(F)(F)C(F)(F)C2(F)C1(F)F` (centres unmarked) [Perfluorodecalin], the “Vapour Pressure” value in data set [1] is recorded as 12.5 mm Hg. Further, the “residence time in the tissue / release from the tissue” value with skin tissue [4] is “released correspondingly more rapidly from the tissue”. For the compound `FC(F)(F)C(F)(F)C(F)(F)C(F)(F)C(F)(F)C(F)(F)C(F)(F)C(F)(F)Br` [Perfluorooctyl bromide], in data set [1], the “Vapour Pressure” value is recorded as 14 mm Hg.

`FC(F)(F)C(F)(F)C(F)(F)C(F)(F)C=CC(F)(F)C(F)(F)C(F)(F)C(F)(F)F` [bis-F(butyl)ethene]: the “Vapour Pressure” value in data set [1] is given as 12.6 mm Hg.
